Measurements: PMC10166914, “GTN057, a komaroviquinone derivative, induced myeloma cells' death in vivo and inhibited c‐MET tyrosine kinase” (Cancer Medicine, 2023)
Values joined by “and” are separate entries in the source; they are usually repeats but may differ in a detail not shown here. Identical values can stand only once.

Tests used:
[1] = Pharmacokinetic study, LC-MS/MS of plasma; assay type: in vivo, ICR mice
Description: For the pharmacokinetic study, 0 or 100 mg/kg of GTN057 (1% Tween® 80 + 10% DMSO in saline) was injected (i.p.) into male 5‐week‐old ICR mice. Peripheral blood samples were taken using heparinized hematocrit tubes from the tail vein of each mouse at 0, 15, and 30 min and 1, 2, 4, and 24 h. The blood samples were applied to centrifugation (1100 × g, 15 min at 4°C) and we then collected the supernatant plasma. […] (Wako) and MeOH (Kanto, Tokyo) for LC–MS/MS (liquid chromatography–tandem mass spectrometry) measurements were mixed in a 1:1 ratio, and verapamil hydrochloride (an internal standard substance) was dissolved to the final concentration of 120 ng/mL to prepare a deproteinizing agent. We diluted the blood samples four times with this deproteinizing agent. After 15 min on ice, each deproteinized plasma sample was centrifuged (9100 × g, 10 min, 4°C). The supernatants were collected and used for the LC–MS/MS analyses.
All compounds including GTN057 were analyzed with a mass spectrometer (AB SCIEX) coupled to an HPLC (high‐performance liquid chromatography) system (Shimadzu). The peptides were separated with the use of an Atlantis® dC18, 3‐μm, 100 Å column (Waters). The solvent composition was 15% for solution A (100 mM CH3COONH4) and 85% for solution B (CH3OH). The HPLC measurement settings were as follows. Constant flow rate: 0.2 mL/min, column temperature: 40°C. The MS settings were: spray voltage, 5500 V; turbo heater temperature, 300°C.

KMS11 xenografted tumor = assay: Histopathologic and immunohistochemical examination of xenografts; assay type: in vivo, ICR/SCID mice; conditions: GTN057-treated KMS11 xenografts, immunohistochemistry
From the text: Xenografts were excised and fixed with 10% formalin and embedded in paraffin. Five‐μm sliced sections were used for hematoxylin and eosin (H&E) staining. For the immunohistochemical evaluation, we used anti‐human cleaved poly(ADP‐ribose), polymerase (PARP), polyclonal antibody (pAb) (Cell Signaling Technology Japan, Tokyo), anti‐human Ki‐67 monoclonal antibody (mAb) (clone MIB‐1) (Dako Japan, Tokyo), anti‐human cleaved caspase‐3 (Asp175), pAb (Cell Signaling Technology Japan), and anti‐human Factor VIII mAb (Atlas Antibodies).

[2] = male, mouse, ip, single i.p. injection 100 mg/kg, ICR mice, plasma

Q: Which Cmax [1, 2] does the source give for `COc1c(OC(C)=O)c2c(c(O)c1C(C)C)C(=O)CC1C(C)(C)CCC[C@]1(O)C2` (some centres unmarked) [GTN057] here?
A: 790 ng/mL and 1.95 µM

Q: And the Tmax [1, 2]?
A: 30 min

Q: What about the Degradation in plasma ([1]; plasma, LC-MS/MS, preliminary data) of the same compound?
A: immediately dehydrated (m/z 387) or deacetylated (m/z 363) in plasma

Q: And the plasma disappearance half-time ([1]; single i.p. injection 100 mg/kg, ICR mice)?
A: 110 min

Q: And the “Presence in blood at 24 h post-injection” value ([1]; single i.p. injection 100 mg/kg, ICR mice, 24 h)?
A: almost completely disappeared

Q: What about the “Number of Factor VIII-positive vessel cells” value (KMS11 xenografted tumor) of the same compound?
A: decreased

Q: What about the “Numbers of cleaved-caspase-3-positive and PARP-positive cells” value (KMS11 xenografted tumor) of the same compound?
A: significantly increased

Q: And the “Staining for cell proliferation marker MIB-1/Ki67” value (KMS11 xenografted tumor)?
A: weakened
